Assay results from PMC7031696 (Cell chemical biology, 2019).
Read-outs that look alike come from different tables or passages of the source.

Legend:
[1] = tested on: Plasmodium falciparum 3D7-A10 parasites; assay: Stage specificity assay (8-h exposure of synchronized stages, IC50^8h); type: cell-based; conditions: for IC50: Plasmodium falciparum
[2] = tested on: asynchronous 3D7-A10 parasite cultures; assay: Standard 72-h exposure asexual blood stage susceptibility assay (IC50^72h); type: cell-based, Plasmodium falciparum; conditions: Plasmodium falciparum, 3D7, 72 h, read-out: Overall (72hr assay) Mean IC50 (IC50^72h)
[3] = tested on: 3D7-MR4 trophozoite parasite-infected RBCs; assay: Metabolomic profiling (hydrophilic metabolite changes, UHPLC-MS); type: cell-based, Plasmodium falciparum
[4] = tested on: 3D7-A10 or Dd2-B2 parasites; assay: Resistance selections (single step, pulsing or ramping); type: cell-based, Plasmodium falciparum
[5] = tested on: synchronized Plasmodium falciparum parasites; assay: Microscopical study of cell morphology after 8-h exposures (Figure S4); type: cell-based; conditions: 3× the IC50^8h of the most sensitive life stage, 8-h intervals
[6] = 10 × IC50^72h, 2.5 hr, trophozoites

## CC(C)(C)OC(=O)N1CCN(c2ccccc2NC(=O)c2cccc(C(F)(F)F)c2Oc2ccc(F)cc2)CC1 [MMV030666]
[1]; 3D7-A10
  Ratio lowest IC50 8hr/IC50 72hr: 1.9
[1]; 8-h exposures, survival curves
  killing in stage specificity assay: incomplete killing
[1]; 3D7, read-out: Early rings Mean IC50 (IC50^8h), 8-h exposure 0–8 hr, 3D7-A10, survival at 60 h
  IC50: 10.3 µM
[1]; 3D7, read-out: Early trophozoites Mean IC50 (IC50^8h), 8-h exposure 16–24 hr, 3D7-A10, survival at 60 h
  IC50: 5.12 µM
[1]; 3D7, read-out: Late rings Mean IC50 (IC50^8h), 8-h exposure 8–16 hr, 3D7-A10, survival at 60 h
  IC50: 11.4 µM
[1]; 3D7, read-out: Late trophozoites Mean IC50 (IC50^8h), 8-h exposure 24–32 hr, 3D7-A10, survival at 60 h
  IC50: 0.858 µM
[1]; 3D7, read-out: Schizonts Mean IC50 (IC50^8h), 8-h exposure 32–40 hr, 3D7-A10, survival at 60 h
  IC50: 4.19 µM
[1]; period when the parasite was most susceptible (lowest IC50^8h)
  Stage of peak activity (Figure 6): late trophozoites
[1]; stage(s) with the lowest IC50^8h
  Peak Activity (Table S1): Late Trophs
[2]
  IC50: 0.462 µM
[3]; [6]
  metabolic signature: increases in the pyrimidine precursors dihydroorotate and N-carbamoyl-L-aspartate (mETC disruption): observed
  orotidine 5-P levels: decreased
  peptide levels (hemoglobin catabolism signature): decreased peptide levels
[3]; metabolite 3-phosphoglycerate, log2 fold change
  Log2(fold changes) 3-phosphoglycerate: 0.0028
[3]; metabolite 4-Pyridoxic acid, log2 fold change
  Log2(fold changes) 4-Pyridoxic acid: -0.4279
[3]; metabolite 4-aminobutyrate, log2 fold change
  Log2(fold changes) 4-aminobutyrate: -0.0634
[3]; metabolite 4-phosphopantetheine, log2 fold change
  Log2(fold changes) 4-phosphopantetheine: -0.3320
[3]; metabolite 4-phosphopantothenate, log2 fold change
  Log2(fold changes) 4-phosphopantothenate: -1.0807
[3]; metabolite 5-aminopentanoic acid, log2 fold change
  Log2(fold changes) 5-aminopentanoic acid: 0.0000
[3]; metabolite 5-methyl-THF, log2 fold change
  Log2(fold changes) 5-methyl-THF: 0.0000
[3]; metabolite 5-phosphoribosyl-1-pyrophosphate, log2 fold change
  Log2(fold changes) 5-phosphoribosyl-1-pyrophosphate: -0.6917
[3]; metabolite 6-phospho-D-gluconate, log2 fold change
  Log2(fold changes) 6-phospho-D-gluconate: -0.3165
[3]; metabolite HVDD
  Log2(fold change) HVDD: -4.9061
[3]; metabolite Hydroxyisocaproic acid
  Log2(fold change) Hydroxyisocaproic acid: 0.0000
[3]; metabolite IDP
  Log2(fold change) IDP: 0.0000
[3]; metabolite IMP
  Log2(fold change) IMP: 0.0932
[3]; metabolite Inositol
  Log2(fold change) Inositol: 0.0000
[3]; metabolite Isopentyl-PP
  Log2(fold change) Isopentyl-PP: 0.0000
[3]; metabolite L-arginino-succinate
  Log2(fold change) L-arginino-succinate: -1.0911
[3]; metabolite LD
  Log2(fold change) LD: -0.6358
[3]; metabolite Myristoyl/tetradecanoyl-CoA
  Log2(fold change) Myristoyl/tetradecanoyl-CoA: 0.0000
[3]; metabolite N-Acetyl-L-alanine
  Log2(fold change) N-Acetyl-L-alanine: -0.5215
[3]; metabolite N-acetyl-L-ornithine
  Log2(fold change) N-acetyl-L-ornithine: 0.0000
[3]; metabolite N-acetyl-glucosamine-1/6-phosphate
  Log2(fold change) N-acetyl-glucosamine-1/6-phosphate: -0.1279
[3]; metabolite N-acetyl-glutamate
  Log2(fold change) N-acetyl-glutamate: 0.2373
[3]; metabolite N-acetyl-glutamine
  Log2(fold change) N-acetyl-glutamine: -0.0526
[3]; metabolite N-carbamoyl-L-aspartate
  Log2(fold change) N-carbamoyl-L-aspartate: 1.9816
[3]; metabolite NAD+
  Log2(fold change) NAD+: -0.1975
[3]; metabolite NADH
  Log2(fold change) NADH: 1.6901
[3]; metabolite NADP+
  Log2(fold change) NADP+: -0.2280
[3]; metabolite NADPH
  Log2(fold change) NADPH: 1.2462
[3]; metabolite O-acetyl-L-serine
  Log2(fold change) O-acetyl-L-serine: 0.0000
[3]; metabolite Octoluse 8/1P
  Log2(fold change) Octoluse 8/1P: 0.2225
[3]; metabolite Octoluse Bisphosphate
  Log2(fold change) Octoluse Bisphosphate: -1.0839
[3]; metabolite PD
  Log2(fold change) PD: -3.4872
[3]; metabolite PE
  Log2(fold change) PE: -3.3751
[3]; metabolite PEE
  Log2(fold change) PEE: -2.7815
[3]; metabolite PEEK
  Log2(fold change) PEEK: -2.6677
[3]; metabolite PVNF
  Log2(fold change) PVNF: -4.4222
[3]; metabolite Pyroglutamic acid
  Log2(fold change) Pyroglutamic acid: 0.3360
[3]; metabolite Pyrophosphate
  Log2(fold change) Pyrophosphate: 0.0000
[3]; metabolite Ribose-5-phosphate
  Log2(fold change) Ribose-5-phosphate: -0.7810
[3]; metabolite S-adenosyl-L-homocysteine
  Log2(fold change) S-adenosyl-L-homocysteine: 0.2136
[3]; metabolite S-adenosyl-L-methioninamine
  Log2(fold change) S-adenosyl-L-methioninamine: 0.0000
[3]; metabolite S-adenosyl-L-methionine
  Log2(fold change) S-adenosyl-L-methionine: 0.0000
[3]; metabolite S-methyl-5'-thioadenosine
  Log2(fold change) S-methyl-5'-thioadenosine: 0.3369
[3]; metabolite SD
  Log2(fold change) SD: -2.5205
[3]; metabolite SDL
  Log2(fold change) SDL: -4.4795
[3]; metabolite SID
  Log2(fold change) SID: 0.0000
[3]; metabolite Sedoheptulose bisphosphate
  Log2(fold change) Sedoheptulose bisphosphate: -0.5250
[3]; metabolite Thiamine pyrophosphate
  Log2(fold change) Thiamine pyrophosphate: -0.1162
[3]; metabolite UDP-D-glucose, log2 fold change
  Log2(fold changes) UDP-D-glucose: -0.1835
[3]; metabolite UDP-D-glucuronate, log2 fold change
  Log2(fold changes) UDP-D-glucuronate: -0.4871
[3]; metabolite UDP-N-acetyl-glucosamine, log2 fold change
  Log2(fold changes) UDP-N-acetyl-glucosamine: -0.5093
[3]; metabolite UDP, log2 fold change
  Log2(fold changes) UDP: -1.4928
[3]; metabolite UMP, log2 fold change
  Log2(fold changes) UMP: -0.5598
[3]; metabolite UTP, log2 fold change
  Log2(fold changes) UTP: -1.9407
[3]; metabolite hydroxyphenylpyruvate
  Log2(fold change) hydroxyphenylpyruvate: 0.0000
[3]; metabolite hydroxyproline/Aminolevulinate
  Log2(fold change) hydroxyproline/Aminolevulinate: -0.0744
[3]; metabolite hypoxanthine
  Log2(fold change) hypoxanthine: 0.1169
[3]; metabolite indole
  Log2(fold change) indole: 0.3440
[3]; metabolite inosine
  Log2(fold change) inosine: -0.2932
[3]; metabolite isoleucine
  Log2(fold change) isoleucine: -0.1542
[3]; metabolite lactate
  Log2(fold change) lactate: -0.3562
[3]; metabolite leucine
  Log2(fold change) leucine: -0.3099
[3]; metabolite lysine
  Log2(fold change) lysine: 0.0000
[3]; metabolite malate
  Log2(fold change) malate: -1.0993
[3]; metabolite maleic acid
  Log2(fold change) maleic acid: -0.3336
[3]; metabolite methionine
  Log2(fold change) methionine: -0.1260
[3]; metabolite myo-inositol
  Log2(fold change) myo-inositol: 0.0000
[3]; metabolite nicotinamide mononucleotide
  Log2(fold change) nicotinamide mononucleotide: 0.0000
[3]; metabolite nicotinate
  Log2(fold change) nicotinate: -0.1069
[3]; metabolite ornithine
  Log2(fold change) ornithine: 0.0000
[3]; metabolite orotate
  Log2(fold change) orotate: -0.1643
[3]; metabolite orotidine-5'-phosphate
  Log2(fold change) orotidine-5'-phosphate: -1.8500
[3]; metabolite oxaloacetate
  Log2(fold change) oxaloacetate: 0.0000
[3]; metabolite p-aminobenzoate
  Log2(fold change) p-aminobenzoate: 0.0000
[3]; metabolite p-hydroxybenzoate
  Log2(fold change) p-hydroxybenzoate: 0.0000
[3]; metabolite pantothenate
  Log2(fold change) pantothenate: -0.0587
[3]; metabolite phenylalanine
  Log2(fold change) phenylalanine: -0.5281
[3]; metabolite phenylpyruvate
  Log2(fold change) phenylpyruvate: 0.0000
[3]; metabolite phosphoenolpyruvate
  Log2(fold change) phosphoenolpyruvate: 0.0797
[3]; metabolite prephenate
  Log2(fold change) prephenate: 0.0000
[3]; metabolite proline
  Log2(fold change) proline: -0.4182
[3]; metabolite pyridoxine
  Log2(fold change) pyridoxine: 0.0000
[3]; metabolite pyruvate
  Log2(fold change) pyruvate: -1.3359
[3]; metabolite riboflavin
  Log2(fold change) riboflavin: -0.6446
[3]; metabolite ribose
  Log2(fold change) ribose: 0.0000
[3]; metabolite ribose-phosphate
  Log2(fold change) ribose-phosphate: 0.0000
[3]; metabolite ribulose-5-phosphate
  Log2(fold change) ribulose-5-phosphate: -0.3252
[3]; metabolite serine
  Log2(fold change) serine: -0.1988
[3]; metabolite sn-glycerol-3-phosphate
  Log2(fold change) sn-glycerol-3-phosphate: 0.6292
[3]; metabolite succinate/Methylmalonic acid
  Log2(fold change) succinate/Methylmalonic acid: -1.4071
[3]; metabolite succinyl-CoA/methylmalonyl-CoA
  Log2(fold change) succinyl-CoA/methylmalonyl-CoA: -0.7249
[3]; metabolite taurine
  Log2(fold change) taurine: 0.0000
[3]; metabolite thiamine
  Log2(fold change) thiamine: 0.0000
[3]; metabolite threonine/homoserine
  Log2(fold change) threonine/homoserine: -0.8029
[3]; metabolite thymidine
  Log2(fold change) thymidine: 0.0000
[3]; metabolite thymine, log2 fold change
  Log2(fold changes) thymine: 0.0000
[3]; metabolite trehalose-6-Phosphate, log2 fold change
  Log2(fold changes) trehalose-6-Phosphate: 0.0000
[3]; metabolite tryptophan, log2 fold change
  Log2(fold changes) tryptophan: 0.1993
[3]; metabolite tyrosine, log2 fold change
  Log2(fold changes) tyrosine: -0.2219
[3]; metabolite uridine, log2 fold change
  Log2(fold changes) uridine: 0.0000
[4]; 3D7-A10, 1 × to 1.8 × IC50^72h over 3 months
  outcome of ramping resistance selection: did not produce resistance
[4]; 5 × 10^8 to 1 × 10^9 3D7-A10 or Dd2-B2 parasites, 3–6 × IC50^72h
  outcome of resistance selections (continuous exposure or pulsing): failed to yield resistance
[4]; from failed selections in 3D7-A10 / Dd2-B2
  minimum inocula of resistance: above 5 × 10^8 parasites
[5]
  digestive vacuole morphology: bloated digestive vacuoles
  most susceptible stage by cell morphology: late trophozoite stage
